Experiments:
[1] = test system: LN229 MGMT−/MMR+ and MGMT−/MMR− cells; test: IR alkaline comet assay; type: cell-based, human
Experimental: IR Alkaline Comet Assay. Assay was performed utilizing the CometAssay Kit (Trevigen) according to the alkaline assay protocol, with the addition of slide irradiation post-lysis. Cells were trypsinized, washed with 1×PBS, added to melted Comet LMAgarose (Trevigen), and spread on Trevigen CometSlides at a density of 1000 cells per sample in 50 μL. Lysis solution (Trevigen) with 10% DMSO was added overnight at 4° C. Slides were removed from lysis buffer and irradiated to 0 or 10 Gy using an XRAD 320 X-Ray System (Precision X-Ray) at 320 kV, 12.5 mA, and 50.0 cm SSD, with a 2 mm Al filter and 20 cm×20 cm collimator. Slides were then placed in alkaline buffer (200 mM NaOH, 1 mM EDTA) for 45 min, followed by electrophoresis in 850 mL alkaline buffer for 45 min at 4° C. Slides were washed and stained with SYBR gold (Invitrogen) per Trevigen assay protocol. Slides were imaged on a Cytation 3 imaging reader (BioTek), and comets were analyzed using CometScore 2.0 software (TriTek).
We used a well-established comet assay adapted for ICL detection to determine if ICLs were formed in MGMT− cells treated with KL-50 (4a) (FIG. Z3, A and B). In this assay, cells were sequentially exposed to genotoxins and ionizing radiation, and then analyzed by single cell alkaline gel electrophoresis. Attenuation of the IR-induced comet tail is indicative of ICL formation.

LN229 MGMT−/MMR− cells = test: Short-term cell viability assay; type: cell-based, human
Experimental: (§1) Short-term Cell Viability Assay. Cells were seeded in 96-well plates at 1000 or 2000 cells/well and allowed to adhere at 23° C. for 60 min and then incubated overnight at 37° C. Cells were treated with indicated concentrations of compounds in triplicate for 4-6 days prior to fixation with 3.7% paraformaldehyde and nuclear staining with 1 μg/mL Hoechst 33342 dye. Cells were imaged on a Cytation 3 imaging reader (BioTek) and quantified using CellProfiler software.
Statistical analysis. Statistical analysis was performed using GraphPad Prism software. Data are presented as mean or median±SD or SEM as indicated. For in vitro short-term growth delay experiments, IC50 values were determined from the nonlinear regression equation, [inhibitor] vs normalized response with variable slope. […]
We synthesized the imidazotetrazine 4a (KL-50) and the triazene 4b (KL-85), as vehicles to deliver 2-fluoroethyl diazonium (4c), and a series of related agents to probe structure-activity relationships in tissue culture (FIG. Z1, D and F). […] We evaluated the cytotoxicity of our compounds in short-term cell viability assays against four isogenic LN229 glioblastoma cell lines engineered to be proficient or deficient in MGMT and/or MMR activity, using short hairpin RNAs (shRNAs) targeting MSH2 (referred to as MGMT+/−, MMR+/− cells hereafter; FIG. ZS2A). […]

[2] = test system: genomic DNA of LN229 MGMT−/MMR+ cells; test: Genomic DNA denaturing gel electrophoresis; type: cell-based, human; settings: 200 μM, 24 h
Experimental: Genomic DNA Denaturing Gel Electrophoresis. Cells were trypsinized, washed with 1×PBS, and stored at −80° C. prior to processing. Genomic DNA was extracted with the DNeasy Blood & Tissue Kit (Qiagen) per kit protocol. A 0.7% agarose gel was prepared in 100 mM NaCl-2 mM EDTA (pH 8) and soaked in 40 mM NaOH-1 mM EDTA running buffer for 2 h. Genomic DNA (400 ng/well) was then loaded in 1× BlueJuice loading buffer (Invitrogen) and subjected to electrophoresis at 2 V/cm for 30 min, followed by 3 V/cm for 2 h. The gel was neutralized in 150 mM NaCl-100 mM Tris (pH 7.4) for 30 min, twice, and then stained with 1× SYBR Gold in 150 mM NaCl-100 mM Tris (pH 7.4) for 90 min. Imaging was performed on a ChemiDoc XRS+ Molecular Imager (Bio-Rad).

[3] = test system: PEO4 (BRCA2+) and PEO1 (BRCA2−/−) cells; test: Short-term cell viability assay in PEO1/4 model; type: cell-based, human; settings: for therapeutic index (TI): PEO1/4 model, ratio of IC50 values; for sensitivity of BRCA2-deficient cells (in words): PEO1 versus PEO4, ± 10 μM O^6BG
Experimental: (§2) FIGS. Z4A-Z4I. KL-50 (4a) activates DNA damage response pathways and cycle arrest in MGMT− cells, independent of MMR, and induces sensitivity in cells deficient in ICL or HR repair. (FIGS. Z4A, Z4B, and Z4C) Phospho-SER139-H2AX (γH2AX) (A), 53BP1 (FIG. Z4B), and phospo-SER33-RPA2 (pRPA) (FIG. Z4C) foci formation quantified by % cells with 10 foci in LN229 MGMT+/−, MMR+/− cells treated with 0.1% DMSO control, 20 μM KL-50 (4a), or 20 μM TMZ (1a) for 48 h. Columns, mean; error bars, SD; n≥5 technical replicates. Additional time course data is presented in FIG. ZS6B to D. (FIG. Z4D) Representative foci images of data in (FIG. Z4A) to (FIG. Z4C). (FIG. Z4E) Percentage of cells in G1, S, and G2 cell cycle phases after treatment as in (A) to (C), measured using integrated nuclear (Hoechst) staining intensity. Columns, mean; error bars, SD; n=3 independent analyses. (FIG. Z4F) Change in percent cells with 1 micronuclei from baseline (DMSO control) after treatment as in (FIG. Z4A) to (FIG. Z4C). Columns, mean; error bars, SD; […] technical replicates; **** p<0.0001; ns, not significant. Additional validation is presented in FIG. ZS9, A and B. (FIG. Z4G) Short-term viability assay curves for KL-50 (4a) in PD20 cells, deficient in FANCD2 (FANCD2−/−) or complemented with FANCD2 (+FANCD2). (FIG. Z4H) Short-term viability assay curves for KL-50 (4a) in PEO4 (BRCA2+) and PEO1 (BRCA2−/−) cells pre-treated with 0.01% DMSO control or 10 μM O^6BG (+O^6BG) for 1 h prior to KL-50 (4a) addition. (FIG. Z4I) Short-term viability assay curves for KL-50 (4a) in DLD1 BRCA2+/− and BRCA2−/− cells pre-treated with 0.01% DMSO control or 10 μM O^6BG (+O^6BG) for 1 h prior to KL-50 (4a) addition. For (FIG. Z4G), (FIG. Z4H), and (FIG. Z4I), points, mean; error bars, SD; n=3 technical replicates.
as §1

[4] = test system: PD20 cells, FANCD2−/− or +FANCD2; test: Short-term cell viability assay in FANCD2 model; type: cell-based, human; settings: PD20 FANCD2−/− versus +FANCD2
Experimental: as §2
Short-term Cell Viability Assay. Cells were seeded in 96-well plates at 1000 or 2000 cells/well and allowed to adhere at 23° C. for 60 min and then incubated overnight at 37° C. […] Cells were imaged on a Cytation 3 imaging reader (BioTek) and quantified using CellProfiler software.

[5] = test system: DLD1 BRCA2+/− and BRCA2−/− cells; test: Short-term cell viability assay in DLD1 isogenic model; type: cell-based, human; settings: for sensitivity of BRCA2-deficient cells (in words): DLD1 BRCA2−/− versus BRCA2+/−, ± 10 μM O^6BG; for therapeutic index (TI): ratio of IC50 values in MGMT+/BRCA2+ cells compared to MGMT−/BRCA2− cells
Experimental: as §2, §1

[6] = test system: linearized pUC19 plasmid DNA; test: Melting temperature assay; type: biochemical; settings: 100 or 500 μM for 3 h
Experimental: Melting Temperature Assay. Linearized pUC19 DNA (750 ng), prepared as described above, was incubated with the indicated concentration of either MMS or KL-50 (4a) adjusted in a final volume of 18 μL in 100 mM Tris buffer (pH 7.4) for 3 h. Drug stock concentrations were made in DMSO such that each reaction contained a fixed 5% DMSO concentration. Afterwards, 1 μL each of 20× SYBR Green dye (Invitrogen) and 20× ROX reference dye (Invitrogen) was added and melting temperature analysis was run on a StepOnePlus RT PCR System (Applied Biosciences) to generate melting temperature curves.

[7] = test system: four isogenic LN229 glioblastoma cell lines (MGMT+/−, MMR+/−); type: cell-based; settings: LN229 MGMT+ versus MGMT− cells; listed as 12a
Experimental: as §1
Statistical analysis. Statistical analysis was performed using GraphPad Prism software. Data are presented as mean or median±SD or SEM as indicated. For in vitro short-term growth delay experiments, IC50 values were determined from the nonlinear regression equation, [inhibitor] vs normalized response with variable slope. For micronuclei assays, comparisons were made with one-way ANOVA and Sidak correction for multiple comparisons. For xenograft growth delay experiments, comparisons were made with Mann-Whitney test (for comparison of 2 groups) or Kruskal-Wallis test with FDR-adjusted p-values with Q set to 5% (for comparison of ≥3 groups). For xenograft survival analysis, Kaplan-Meier analysis was used to evaluate survival rate based on death or removal from study when body weight loss exceeded 20% of initial body weight
We synthesized the imidazotetrazine 4a (KL-50) and the triazene 4b (KL-85), as vehicles to deliver 2-fluoroethyl diazonium (4c), and a series of related agents to probe structure-activity relationships in tissue culture (FIG. Z1, D and F). The 2-fluoropropyl- and 3-fluoropropyl-triazenes (10 and 11, respectively) were prepared by diazotization of 4-aminoimdazole-5-carboxamide, followed by the addition of the respective amine. All other triazenes were prepared according to literature procedures. We evaluated the cytotoxicity of our compounds in short-term cell viability assays against four isogenic LN229 glioblastoma cell lines engineered to be proficient or deficient in MGMT and/or MMR activity, using short hairpin RNAs (shRNAs) targeting MSH2 (referred to as MGMT+/−, MMR+/− cells hereafter; FIG. ZS2A). This approach allowed us to rapidly and rigorously interrogate the relationship between MGMT and MMR status and compound activity.
The compounds 10a through 10l and TMZ were tested in the short-term cell viability assay.

[8] = test system: LN229 MGMT+/−, MMR+/− cells; test: Clonogenic cell survival assay; settings: cell status given in the value
Experimental: Cells were trypsinized, washed, counted, and diluted in a medium containing various concentrations of drug. They were then immediately seeded in six-well plates in triplicate at three-fold dilutions, ranging from 9000 to 37 cells per well. Depending on colony size, these plates were kept in the incubator for 10 to 14 days. After incubation, colonies were washed in phosphate-buffered saline (PBS), stained with crystal violet, counted, and quantified.

NC(=O)c1nc[nH]c1N=NNCCF [KL-85]
effect on IR-induced comet tail, ICL detection (in words) ([1]; MGMT−/MMR+ cells, 200 μM for 24 h, 10 Gy): Comparable results | IC50 (LN229 MGMT−/MMR− cells): 27.5 µM | crosslinked genomic DNA (in words) [2]: presence of crosslinked DNA

CO[C@@]12[C@H](COC(N)=O)C3=C(C(=O)C(C)=C(N)C3=O)N1C[C@@H]1N[C@@H]12 [MMC, mitomycin C]
therapeutic index (TI) [3]: 7 fold | sensitivity of BRCA2-deficient cells (in words) [3]: hypersensitivity of PEO4 BRCA2−/− cells to crosslinking agents independent of MGMT depletion | effect on IR-induced comet tail, ICL detection (in words) ([1]; MGMT−/MMR+ cells, 0.1 μM for 24 h, 10 Gy): partial reduction in the IR-induced comet tail | effect on IR-induced comet tail, ICL detection (in words) ([1]; MGMT−/MMR+ cells, 50 μM for 2 h, 10 Gy): completely abolished the IR-induced comet tail | comet tailing in the absence of IR (in words) ([1]; MGMT−/MMR+ cells, TMZ and KL-50 200 μM, MMC 0.1 or 50 μM): did not | sensitivity of FANCD2-deficient cells (in words) [4]: hypersensitivity to crosslinking agents in FANCD2−/− cells | sensitivity of BRCA2-deficient cells (in words) [5]: hypersensitivity of DLD1 BRCA2−/− cells to crosslinking agents independent of MGMT depletion | therapeutic index (TI) [5]: 26 fold

COS(C)(=O)=O [MMS, Methylmethane sulfonate, reference compound]
change in DNA melting temperature (in words) [6]: comparable changes in measured DNA melting temperature

NC(=O)c1ncn2c(=O)n(CCCl)nnc12 [MTZ, mitozolomide]
selectivity for MGMT-deficient cells [7]: ~7 fold | DNA damage in unirradiated samples (in words) ([1]; MGMT−/MMR− cells, 200 μM, 2, 8 or 24 h, 0 Gy): induced maximal damage at 2 h, which decreased over time | rate of ICL formation, DNA mobility after IR (in words) ([1]; MGMT−/MMR− cells, 200 μM, 2, 8 or 24 h, 10 Gy): reduced DNA mobility within 2 h

N.N.[Cl][Pt][Cl] [cisplatin]
therapeutic index (TI) [3]: 13 fold | sensitivity of BRCA2-deficient cells (in words) [3]: hypersensitivity of PEO4 BRCA2−/− cells to crosslinking agents independent of MGMT depletion | sensitivity of FANCD2-deficient cells (in words) [4]: hypersensitivity to crosslinking agents in FANCD2−/− cells | sensitivity of BRCA2-deficient cells (in words) [5]: hypersensitivity of DLD1 BRCA2−/− cells to crosslinking agents independent of MGMT depletion | therapeutic index (TI) [5]: 42 fold

O=NN(CCCl)C(=O)NC1CCCCC1 [lomustine]
clonogenic survival (in words) [8]: effective in MMR− cells but was cytotoxic to MGMT+ cells

From patent US20240400572A1, “COMPOUNDS AND METHODS FOR TREATING CANCERS THAT ARE MGMT DEFICIENT REGARDLESS OF MMR STATUS” (Yale University, priority 2021, published 2024)
